The test system of this experiment is 186277-243-T-J2-PDC complex spheroid growth, % test/control. The experiment in a line: Anticancer human tumor 186277-243-T-J2-PDC patient-derived colon adenocarcinoma cell line growth inhibition [Asc]. The note with it: for viability, T/C: stronger effect = lower value. The procedure, abridged:
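Complex solid-tumor spheroids incorporating human endothelial and mesenchymal stem cells received single agents or combinations over half-log dilution ranges anchored to clinical Cmax.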

Where [1] appears, read: curve of first compound, second compound 0.03 µM.
The mark [2] stands for this setting: curve of first compound, second compound 0.0949 µM.
Where [3] appears, read: curve of first compound, second compound 0.3 µM.
[4] abbreviates: curve of first compound, second compound 0.949 µM.
The mark [5] stands for this setting: curve of first compound, second compound 3 µM.

SMILES strings stand for the structures. Where “and” joins values, the source holds several entries; their conditions need not be identical. Identical values can stand only once. A value given as a limit tells only on which side of the number the result lay.
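Further: spheroids exposed to agents for 7 days.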
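Wherever viability, T/C is given: 100% = DMSO vehicle control wells.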

By IC50 is commonly meant the concentration that gives 50% inhibition. Broadly, the viability, T/C is the ratio of treated to control. Take `COc1c(OCCCN2CCOCC2)ccc2c3n(c(=NC(=O)c4cnc(N)nc4)nc12)CCN3` + CCN1C(C(=O)NC23CCC(C(=O)O)(CC2)CC3)C(c2cccc(Cl)c2F)C2(C(=O)Nc3cc(Cl)ccc32)C12CCCCC2: the IC50 was 25.8 nM under setting [1]; 18.9 nM under setting [2]; 12.9 nM under setting [3]; under 3.16 nM under setting [4]; under 3.16 nM under setting [5]. Further, the viability, T/C is, setting by setting: (second compound 0.03 µM, first compound 0.00316 µM) 101%; (second compound 0.03 µM, first compound 0.01 µM) 75.2%; (second compound 0.03 µM, first compound 0.0316 µM) 46.7%; (second compound 0.03 µM, first compound 0.1 µM) 18.1%; (second compound 0.03 µM, first compound 0.316 µM) 9.99%; (second compound 0.03 µM, first compound 1 µM) 6.65%. Further, the viability, T/C is 67.3% (second compound 0.0949 µM, first compound 0.00316 µM); 64% (second compound 0.0949 µM, first compound 0.01 µM); 38.8% (second compound 0.0949 µM, first compound 0.0316 µM); 9.15% (second compound 0.0949 µM, first compound 0.1 µM); 4.16% (second compound 0.0949 µM, first compound 0.316 µM); 2.21% (second compound 0.0949 µM, first compound 1 µM). Also, the viability, T/C by setting is: (second compound 0.3 µM, first compound 0.00316 µM) 58.1%; (second compound 0.3 µM, first compound 0.01 µM) 58.4%; (second compound 0.3 µM, first compound 0.0316 µM) 21.4%; (second compound 0.3 µM, first compound 0.1 µM) 2.26%; (second compound 0.3 µM, first compound 0.316 µM) 1.06%; (second compound 0.3 µM, first compound 1 µM) 0.54%. Further, the viability, T/C is 49.5% (second compound 0.949 µM, first compound 0.00316 µM); 40.1% (second compound 0.949 µM, first compound 0.01 µM); 9.96% (second compound 0.949 µM, first compound 0.0316 µM); 0.92% (second compound 0.949 µM, first compound 0.1 µM); 0.3% (second compound 0.949 µM, first compound 0.316 µM); 0.28% (second compound 0.949 µM, first compound 1 µM). The viability, T/C (second compound 3 µM, first compound 0.00316 µM) was 30.3%; the viability, T/C (second compound 3 µM, first compound 0.01 µM) was 24.8%; the viability, T/C (second compound 3 µM, first compound 0.0316 µM) is 5.08%; the viability, T/C (second compound 3 µM, first compound 0.1 µM) was 0.52%; the viability, T/C (second compound 3 µM, first compound 0.316 µM) is 0.33%; the viability, T/C (second compound 3 µM, first compound 1 µM) was 0.31%.

As for `Cc1nc(N2CCC3(CC2)COC(C)C3N)c(CO)nc1Sc1ccnc(N)c1Cl` (centres undefined) + CCN1C(C(=O)NC23CCC(C(=O)O)(CC2)CC3)C(c2cccc(Cl)c2F)C2(C(=O)Nc3cc(Cl)ccc32)C12CCCCC2, the IC50 was over 3000 nM under setting [1]; over 3000 nM under setting [2]; 289 nM under setting [3]; under 9.49 nM under setting [4]; under 9.49 nM under setting [5]. The viability, T/C by setting is: (second compound 0.03 µM, first compound 0.00949 µM) 122%; (second compound 0.03 µM, first compound 0.03 µM) 127%; (second compound 0.03 µM, first compound 0.0949 µM) 105%; (second compound 0.03 µM, first compound 0.3 µM) 113%; (second compound 0.03 µM, first compound 0.949 µM) 90.9%; (second compound 0.03 µM, first compound 3 µM) 90.7%. The viability, T/C by setting is: (second compound 0.0949 µM, first compound 0.00949 µM) 95.1%; (second compound 0.0949 µM, first compound 0.03 µM) 89.2%; (second compound 0.0949 µM, first compound 0.0949 µM) 84.5%; (second compound 0.0949 µM, first compound 0.3 µM) 84.5%; (second compound 0.0949 µM, first compound 0.949 µM) 71.9%; (second compound 0.0949 µM, first compound 3 µM) 57.8%. The viability, T/C runs as follows: (second compound 0.3 µM, first compound 0.00949 µM) 63.2%; (second compound 0.3 µM, first compound 0.03 µM) 67.2%; (second compound 0.3 µM, first compound 0.0949 µM) 57.3%; (second compound 0.3 µM, first compound 0.3 µM) 48.6%; (second compound 0.3 µM, first compound 0.949 µM) 39.6%; (second compound 0.3 µM, first compound 3 µM) 28.3%. Moreover, the viability, T/C is 45.9% (second compound 0.949 µM, first compound 0.00949 µM); 43.6% (second compound 0.949 µM, first compound 0.03 µM); 40.8% (second compound 0.949 µM, first compound 0.0949 µM); 33.1% (second compound 0.949 µM, first compound 0.3 µM); 26.1% (second compound 0.949 µM, first compound 0.949 µM); 19.1% (second compound 0.949 µM, first compound 3 µM). Further, the viability, T/C (second compound 3 µM, first compound 0.00949 µM) is 26.8%; the viability, T/C (second compound 3 µM, first compound 0.03 µM) was 27.6%; the viability, T/C (second compound 3 µM, first compound 0.0949 µM) was 22.1%; the viability, T/C (second compound 3 µM, first compound 0.3 µM) is 19.4%; the viability, T/C (second compound 3 µM, first compound 0.949 µM) was 11.4%; the viability, T/C (second compound 3 µM, first compound 3 µM) is 9.13%.

Take `CCN1C(C(=O)NC23CCC(C(=O)O)(CC2)CC3)C(c2cccc(Cl)c2F)C2(C(=O)Nc3cc(Cl)ccc32)C12CCCCC2` (centres undefined): the viability, T/C (compound 0.00949 µM) is 110% and 119%. Besides, the IC50 (curve of compound) is 1860 nM and > 3000 nM.

In the case of `NC1CCC(NC2CC2c2ccccc2)CC1` (centres undefined), the viability, T/C runs as follows: (compound 0.000316 µM) 104% and 75.7% and 107%; (compound 0.001 µM) 96.8% and 96.6% and 112%; (compound 0.00316 µM) 101% and 79% and 98.9%; (compound 0.01 µM) 96.4% and 84.1% and 93.7%; (compound 0.0316 µM) 83.8% and 77.6% and 108%; (compound 0.1 µM) 79.2% and 72.9% and 88.8%. Besides, the IC50 (curve of compound) was over 100 nM.

These data come from PubChem BioAssay AID1963426 (Molecular Pharmacology Branch, DTP, NCI, 2024).
